Test results from US20250092065A1, “2-(INDAZOL-5-YL)-6-(PIPERIDIN-4-YL)-1,7-NAPHTHYRIDINE DERIVATIVES AND RELATED COMPOUNDS AS MODULATORS FOR SPLICING NUCLEIC ACIDS AND FOR THE TREATMENT OF PROLIFERATIVE DISEASES” (REMIX THERAPEUTICS INC., priority 2022, published 2025).
pIC50: −log10 of the molar value. Where two headings read alike, the source gives them in different places.

Assays:
Format in all cases: cell-based, human
Target C = test: HiBiT protein abundance assay, Target C (K562 HiBiT knock-in); details: HiBiT knock-in K562 cells, 24 hours, top dose 10 μM
In short: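 K562 HiBiT knock-in cells (10000/well) were treated 24 h at 37° C with a 10-point 3-fold dilution series (top 10 μM final, ≤0.25% DMSO). HiBiT luminescence was read after lytic LgBiT detection. Percent response used unmodified K562 and DMSO-treated knock-in controls, and IC50 came from a four-parameter fit at 50% of untreated.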

MYB mRNA = test: RT-qPCR splicing assay, MYB mRNA canonical (CJ) and alternative (AJ) junction; details: for AC50: MYB alternative junction mRNA, read-out: MYB AJ (increase in AJ mRNA, AC50)
In short: (§1)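 Junction-specific RT-qPCR read-out: CJ and AJ isoform levels, housekeeper-normalized (GAPDH/GUSB/PPIA), ΔΔCt vs DMSO, converted to RQ then % response. Cells: A673 (DMEM/10% FBS, adhered 24 h) or K562 (IMDM/10% FBS). Compound 11-pt 3-fold, top 10 uM, 24 h, 37 °C.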

MYB = test: HiBiT protein abundance assay, MYB (K562 HiBiT knock-in); details: HiBiT knock-in K562 cells, 24 hours, top dose 10 μM
In short: (§2)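 Endogenously HiBiT-tagged K562 lines were treated for 24 h at 37 °C with 10-point 3-fold dilutions (top 10 μM final, DMSO ≤0.25%). Lytic LgBiT complementation luminescence was normalized between unmodified K562 (PC) and DMSO-treated tagged cells (NC); IC50 was interpolated at 50% from a four-parameter logistic fit.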

HTT = test: HiBiT protein abundance assay, HTT (K562 HiBiT knock-in); details: HiBiT knock-in K562 cells, 24 hours, top dose 10 μM
In short: as §2

HTT mRNA = test: RT-qPCR splicing assay, HTT mRNA canonical (CJ) and alternative (AJ) junction; details: for AC50: HTT alternative junction mRNA, read-out: HTT AJ (increase in AJ mRNA, AC50)
In short: as §1

[1] = Homo sapiens, MYB canonical junction mRNA, RT-qPCR, read-out: MYB CJ (decrease in CJ mRNA levels, IC50)
[2] = Homo sapiens, canonical junction qPCR panel, Table 4, read-out: MYB IC50 (decrease in CJ mRNA levels)
[3] = Homo sapiens, HTT canonical junction mRNA, RT-qPCR, read-out: HTT CJ (decrease in CJ mRNA levels, IC50)
[4] = Homo sapiens, canonical junction qPCR panel, Table 4, read-out: HTT IC50 (decrease in CJ mRNA levels)

Compound | pIC50 (Target C) | AC50 (MYB mRNA; Homo sapiens, RT-qPCR) [nM] | pIC50 (MYB mRNA; [1]) | pIC50 (MYB mRNA; [2]) | pIC50 (MYB) | pIC50 (HTT) | AC50 (HTT mRNA; Homo sapiens, RT-qPCR) [nM] | pIC50 (HTT mRNA; [3]) | pIC50 (HTT mRNA; [4]) | AC50 (MYB mRNA; RT-qPCR) [nM] | pIC50 (MYB mRNA; MYB canonical junction mRNA, RT-qPCR, read-out: MYB CJ (decrease in CJ mRNA levels, IC50)) | pIC50 (MYB mRNA; canonical junction qPCR panel, Table 4, read-out: MYB IC50 (decrease in CJ mRNA levels)) | AC50 (HTT mRNA; RT-qPCR) [nM] | pIC50 (HTT mRNA; HTT canonical junction mRNA, RT-qPCR, read-out: HTT CJ (decrease in CJ mRNA levels, IC50)) | pIC50 (HTT mRNA; canonical junction qPCR panel, Table 4, read-out: HTT IC50 (decrease in CJ mRNA levels))
Cn1cc2cc(-c3ccc4nc(N5CCC(NC6CC6)C5)ccc4n3)c(O)c(F)c2n1 (racemic) [Compound 287, 5-{6-[3-(cyclopropylamino)pyrrolidin-1-yl]-1,5-naphthyridin-2-yl}-7-fluoro-2-methylindazol-6-ol; trifluoroacetic acid] | > 7.00 | < 100 | > 7.00 | > 7.00 | > 7.00 | > 7.00 | < 100 | > 7.00 | > 7.00 |  |  |  |  |  | 
CC(C)N[C@@H]1CCN(c2ccc3nc(-c4cc5cn(C)nc5c(F)c4O)ccc3n2)C1 (single isomer, unassigned) [Compound 285] | > 7.00 | < 100 | > 7.00 | > 7.00 | > 7.00 | > 7.00 | < 100 | > 7.00 | > 7.00 |  |  |  |  |  | 
CC(C)N[C@H]1CCN(c2ccc3nc(-c4cc5cn(C)nc5c(F)c4O)ccc3n2)C1 (single isomer, unassigned) [Compound 286] | > 7.00 | < 100 | > 7.00 | > 7.00 | > 7.00 | > 7.00 | < 100 | > 7.00 | > 7.00 |  |  |  |  |  | 
Cc1c(O)c(-c2ccc3nc(N4CC[C@@H](NC5CCC5)C4)ccc3n2)cc2cn(C)nc12 (single isomer, unassigned) [Compound 289] | > 7.00 | < 100 | > 7.00 | > 7.00 | > 7.00 | > 7.00 | < 100 | > 7.00 | > 7.00 |  |  |  |  |  | 
Cc1c(O)c(-c2ccc3nc(N4CC[C@H](NC5CCC5)C4)ccc3n2)cc2cn(C)nc12 (single isomer, unassigned) [Compound 290] | > 7.00 | < 100 | > 7.00 | > 7.00 | > 7.00 | > 7.00 | < 100 | > 7.00 | > 7.00 |  |  |  |  |  | 
Cc1nc2cc(O)c(-c3ccc4nc(N5CCC(NCC6CC6)C5)ccc4n3)cc2o1 (single isomer, unassigned) [Compound 291, 6-(6-{3-[(cyclopropylmethyl)amino]pyrrolidin-1-yl}-1,5-naphthyridin-2-yl)-2-methyl-1,3-benzoxazol-5-ol] | 6.00 to 7.00 | 100 to 1000 | 6.00 to 7.00 | 6.00 to 7.00 | 6.00 to 7.00 | > 7.00 | 100 to 1000 | 6.00 to 7.00 | 6.00 to 7.00 |  |  |  |  |  | 
Cc1nc2cc(O)c(-c3ccc4nc(N5CCC(NCC6CC6)C5)ccc4n3)cc2o1 (single isomer, unassigned) [Compound 292, 6-(6-{3-[(cyclopropylmethyl)amino]pyrrolidin-1-yl}-1,5-naphthyridin-2-yl)-2-methyl-1,3-benzoxazol-5-ol] | > 7.00 |  |  |  | 6.00 to 7.00 | > 7.00 |  |  |  | 100 to 1000 | > 7.00 | > 7.00 | 100 to 1000 | 6.00 to 7.00 | 6.00 to 7.00
Cc1nc2c(C)c(O)c(-c3ccc4nc(N5CC[C@@H](NCC6CC6)C5)ccc4n3)cc2o1 (single isomer, unassigned) [Compound 295] | > 7.00 | < 100 | > 7.00 | > 7.00 | > 7.00 | > 7.00 | < 100 | > 7.00 | > 7.00 |  |  |  |  |  | 
Cc1nc2c(C)c(O)c(-c3ccc4nc(N5CC[C@H](NCC6CC6)C5)ccc4n3)cc2o1 (single isomer, unassigned) [Compound 296] | > 7.00 | < 100 | 6.00 to 7.00 | 6.00 to 7.00 | > 7.00 | > 7.00 | < 100 | > 7.00 | > 7.00 |  |  |  |  |  | 
Cn1cc2cc(-c3ccc4nc(N5CC[C@@H](N[C@H]6C[C@@H](F)C6)C5)ccc4n3)c(O)cc2n1 (single isomer, unassigned) [Compound 300] | > 7.00 | < 100 | > 7.00 | > 7.00 | > 7.00 | > 7.00 | < 100 | > 7.00 | > 7.00 |  |  |  |  |  | 
Cn1cc2cc(-c3ccc4nc(N5CC[C@@H](NCC6CC6)C5)ccc4n3)c(O)c(F)c2n1 (single isomer, unassigned) [Compound 303] | > 7.00 | < 100 | > 7.00 | > 7.00 | > 7.00 | > 7.00 | < 100 | > 7.00 | > 7.00 |  |  |  |  |  | 
Cn1cc2cc(-c3ccc4nc(N5CC[C@H](NCC6CC6)C5)ccc4n3)c(O)c(F)c2n1 (single isomer, unassigned) [Compound 304] | > 7.00 | < 100 | > 7.00 | > 7.00 | > 7.00 | > 7.00 | < 100 | > 7.00 | > 7.00 |  |  |  |  |  | 
Cn1cc2cc(-c3ccc4nc(N5CC[C@@H](NC6CC6)C5)ccc4n3)c(O)c(F)c2n1 (single isomer, unassigned) [Compound 305] | > 7.00 | < 100 | > 7.00 | > 7.00 | > 7.00 | > 7.00 | < 100 | > 7.00 | > 7.00 |  |  |  |  |  | 
Cn1cc2cc(-c3ccc4nc(N5CC[C@H](NC6CC6)C5)ccc4n3)c(O)c(F)c2n1 (single isomer, unassigned) [Compound 306] | > 7.00 | < 100 | > 7.00 | > 7.00 | > 7.00 | > 7.00 | < 100 | > 7.00 | > 7.00 |  |  |  |  |  | 
Cc1nc2c(F)c(O)c(-c3ccc4nc(N5CC[C@@H](NC6CCC6)C5)ccc4n3)cc2o1 (single isomer, unassigned) [Compound 307] | > 7.00 | < 100 | > 7.00 | > 7.00 | > 7.00 | > 7.00 | < 100 | > 7.00 | > 7.00 |  |  |  |  |  | 
Cc1nc2c(F)c(O)c(-c3ccc4nc(N5CC[C@H](NC6CCC6)C5)ccc4n3)cc2o1 (single isomer, unassigned) [Compound 308] | > 7.00 | < 100 | > 7.00 | > 7.00 | > 7.00 | > 7.00 | < 100 | > 7.00 | > 7.00 |  |  |  |  |  | 
Cc1nc2c(C)c(O)c(-c3ccc4nc(N5CC[C@@H](NC6(C)CC6)C5)ccc4n3)cc2o1 (single isomer, unassigned) [Compound 310] | > 7.00 | < 100 | > 7.00 | > 7.00 | > 7.00 | > 7.00 | < 100 | > 7.00 | > 7.00 |  |  |  |  |  | 
Cc1nc2c(C)c(O)c(-c3ccc4nc(N5CC[C@H](NC6(C)CC6)C5)ccc4n3)cc2o1 (single isomer, unassigned) [Compound 311] | > 7.00 | 100 to 1000 | 6.00 to 7.00 | 6.00 to 7.00 | 6.00 to 7.00 | > 7.00 | < 100 | > 7.00 | > 7.00 |  |  |  |  |  | 
Cc1nc2c(C)c(O)c(-c3ccc4nc(N5CC[C@@H](NC(C)C)C5)ccc4n3)cc2o1 (single isomer, unassigned) [Compound 313] | > 7.00 | < 100 | > 7.00 | > 7.00 | > 7.00 | > 7.00 | < 100 | > 7.00 | > 7.00 |  |  |  |  |  | 
Cc1nc2c(C)c(O)c(-c3ccc4nc(N5CC[C@H](NC(C)C)C5)ccc4n3)cc2o1 (single isomer, unassigned) [Compound 314] | > 7.00 | < 100 | > 7.00 | > 7.00 | > 7.00 | > 7.00 | < 100 | > 7.00 | > 7.00 |  |  |  |  |  | 
